Source: US12492173B2, “Herbicidal substituted N-tetrazolyl aryl carboxamides” (Bayer Aktiengesellschaft, priority 2019, dated 2025)

Key:
Assay type in all cases: in vivo
Viola tricolor = experiment: Pre-emergence herbicidal action, VIOTR; parameters: key to Herbicidal action against VIOTR: % activity: 100 = plants have died, 0 = like control plants
Procedure, shortened: (§1)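 Percent damage, assessed visually after 3 weeks and referenced to untreated controls, reflects a pre-emergence treatment. Spray liquid equated to 600 to 800 l/ha with 0.2% wetting agent, applied to the covering soil over seeds in sandy loam.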

Matricaria inodora = experiment: Pre-emergence herbicidal action, MATIN; parameters: key to Herbicidal action against MATIN: % activity: 100 = plants have died, 0 = like control plants; conditions: for Herbicidal action against MATIN: comparative experiment, 20 g of a.i./ha
Procedure, shortened: as §1

Pharbitis purpurea = experiment: Pre-emergence herbicidal action, PHBPU; conditions: dosage 320 g/ha, scored visually after 3 weeks vs untreated controls (100% = plants have died)
Excerpt: (§2) 1. Pre-Emergence Herbicidal Action Against Harmful Plants Seeds of monocotyledonous and dicotyledonous weed plants and crop plants are laid out in sandy loam soil in wood-fiber pots and covered with soil. The compounds of the invention, formulated in the form of wettable powders (WP) or as emulsion concentrates (EC), are then applied to the surface of the covering soil in the form of an aqueous suspension or emulsion at a water application rate equating to 600 to 800 l/ha, with addition of 0.2% wetting agent. After the treatment, the pots are placed in a greenhouse and kept under good growth conditions for the trial plants. The damage to the test plants is scored visually after a test period of 3 weeks by comparison with untreated controls (herbicidal activity in percent (%): 100% activity=the plants have died, 0% activity=like control plants). […] The tables below illustrate, in an exemplary manner, the […] herbicidal action of the compounds according to the invention, the herbicidal activity being stated in percent. [table] In the experiments that follow, herbicidal action of numerous inventive compounds and the known compounds that are structurally closest from D1 (WO 2012/028579 A1) and D2 (WO 2018/202535 A1) were compared under the above-specified conditions by the pre-emergence and post-emergence method. The example numbers given in the tables relate to the compounds disclosed in the respective documents. In addition to the compounds disclosed in D1 and D2, the following compounds V-1 to V-14 that are encompassed by D1 or D2 but are not compounds specified therein were used in the comparative experiments: • V-1: 2-(methylsulfanyl)-3-(methylsulfinyl)-N-(1-methyl-1H-tetrazol-5-yl)-4-(trifluoromethyl)benzamide • V-2: 2-(methylsulfanyl)-3-(methylsulfonyl)-N-(1-methyl-1H-tetrazol-5-yl)-4-(trifluoromethyl)benzamide • V-3: 2,3-bis(ethylsulfanyl)-N-(1-methyl-1H-tetrazol-5-yl)-4-(trifluoromethyl)benzamide • V-4: 2-chloro-3-(ethylsulfanyl)-N-(1-methyl-1H-tetrazol-5-yl)-4-(trifluoromethyl)benzamide • V-5: 2-chloro-4-iodo-3-(methylsulfanyl)-N-(1-methyl-1H-tetrazol-5-yl)benzamide • V-6: 2-chloro-4-iodo-3-(methylsulfinyl)-N-(1-methyl-1H-tetrazol-5-yl)benzamide • V-7: 2-chloro-4-iodo-3-(methylsulfonyl)-N-(1-methyl-1H-tetrazol-5-yl)benzamide • V-8: 2-bromo-3-(methylsulfanyl)-N-(1-methyl-1H-tetrazol-5-yl)-4-(trifluoromethyl)benzamide • V-9: 2-bromo-3-(methylsulfinyl)-N-(1-methyl-1H-tetrazol-5-yl)-4-(trifluoromethyl)benzamide • V-10: 2-bromo-3-(methylsulfonyl)-N-(1-methyl-1H-tetrazol-5-yl)-4-(trifluoromethyl)benzamide • V-11: 2-bromo-3-(ethylsulfanyl)-N-(1-methyl-1H-tetrazol-5-yl)-4-(trifluoromethyl)benzamide • V-12: 2-bromo-3-(ethylsulfinyl)-N-(1-methyl-1H-tetrazol-5-yl)-4-(trifluoromethyl)benzamide • V-13: 2-bromo-3-(ethylsulfonyl)-N-(1-methyl-1-1H-tetrazol-5-yl)-4-(trifluoromethyl)benzamide • V-14: 2-cyclopropyl-3-(ethylsulfanyl)-N-(1-methyl-1H-tetrazol-5-yl)-4-(trifluoromethyl)benzamide Herbicidal Pre-Emergence Action: […]

Polygonum convolvulus [1] = experiment: Post-emergence herbicidal action, POLCO; conditions: comparative experiment, post-emergence, 5 g of a.i./ha
Procedure, shortened: (§3)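 Sandy loam, greenhouse; one-leaf stage (2–3 wk after sowing); foliar spray of WP or EC, 600–800 l/ha water + 0.2% wetter; visual rating at ~3 wk vs untreated, % effect.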

Polygonum convolvulus [2] = experiment: Pre-emergence herbicidal action, POLCO
Procedure, shortened: as §1

Hordeum murinum = experiment: Pre-emergence herbicidal action, HORMU; conditions: dosage 320 g/ha, scored visually after 3 weeks vs untreated controls (100% = plants have died)
Excerpt: as §2

Veronica persica = experiment: Pre-emergence herbicidal action, VERPE; parameters: key to Herbicidal action against VERPE: % activity: 100 = plants have died, 0 = like control plants; conditions: for Herbicidal action against VERPE: comparative experiment, 20 g of a.i./ha
Procedure, shortened: as §1

Abutilon theophrasti = experiment: Pre-emergence herbicidal action, ABUTH; parameters: key to Herbicidal action against ABUTH: % activity: 100 = plants have died, 0 = like control plants
Procedure, shortened: as §1

Echinochloa crus-galli = experiment: Pre-emergence herbicidal action, ECHCG; parameters: key to Herbicidal action against ECHCG: % activity: 100 = plants have died, 0 = like control plants; conditions: for pest or weed control at 20 g/ha: Echinochloa crus-galli, 504 h, read-out: Herbicidal action against ECHCG
Procedure, shortened: as §1

Amaranthus retroflexus [3] = experiment: Pre-emergence herbicidal action, AMARE; parameters: key to Herbicidal action against AMARE: % activity: 100 = plants have died, 0 = like control plants; conditions: for Herbicidal action against AMARE: comparative experiment, 20 g of a.i./ha
Procedure, shortened: as §1

Setaria viridis = experiment: Pre-emergence herbicidal action, SETVI; parameters: key to Herbicidal action against SETVI: % activity: 100 = plants have died, 0 = like control plants; conditions: for Herbicidal action against SETVI: comparative experiment, 20 g of a.i./ha
Procedure, shortened: as §1

Cyperus esculentus [4] = experiment: Pre-emergence herbicidal action, CYPES; parameters: key: % activity: 100 = plants have died, 0 = like control plants; conditions: comparative experiment, 20 g of a.i./ha
Excerpt: as §2

Stellaria media [5] = experiment: Pre-emergence herbicidal action, STEME; parameters: key to Herbicidal action against STEME: % activity: 100 = plants have died, 0 = like control plants; conditions: for Herbicidal action against STEME: comparative experiment, 20 g of a.i./ha
Procedure, shortened: as §1

Stellaria media [6] = experiment: Post-emergence herbicidal action, STEME; parameters: key: % herbicidal action vs untreated; 100 = plants died, 0 = like control; conditions: comparative experiment, post-emergence, 5 g of a.i./ha
Procedure, shortened: as §3

Alopecurus myosuroides [7] = experiment: Post-emergence herbicidal action, ALOMY; parameters: key: % herbicidal action vs untreated; 100 = plants died, 0 = like control; conditions: comparative experiment, post-emergence, 5 g of a.i./ha
Experimental: (§4) [table] 2. Post-Emergence Herbicidal Action Against Harmful Plants Seeds of monocotyledonous and dicotyledonous weed and crop plants are laid out in sandy loam soil in wood-fiber pots, covered with soil and cultivated in a greenhouse under good growth conditions. 2 to 3 weeks after sowing, the test plants are treated at the one-leaf stage. The compounds of the invention, formulated in the form of wettable powders (WP) or as emulsion concentrates (EC), are then sprayed onto the green parts of the plants in the form of an aqueous suspension or emulsion at a water application rate equating to 600 to 800 l/ha, with addition of 0.2% wetting agent. After the test plants have been left to stand in the greenhouse under optimal growth conditions for about 3 weeks, the action of the preparations is assessed visually in comparison to untreated controls (herbicidal action in percent (%): 100% activity=the plants have died, 0% activity=like control plants). […] The tables below illustrate, in an exemplary manner, the post-emergence herbicidal action of the compounds according to the invention, the herbicidal activity being stated in percent. In the experiments that follow, herbicidal action of numerous inventive compounds and the known compounds that are structurally closest from D1 (WO 2012/028579 A1) and D2 (WO 2018/202535 A1) were compared under the above-specified conditions by the pre-emergence and post-emergence method. The example numbers given in the tables relate to the compounds disclosed in the respective documents. In addition to the compounds disclosed in D1 and D2, the following compounds V-1 to V-14 that are encompassed by D1 or D2 but are not compounds specified therein were used in the comparative experiments: • V-1: 2-(methylsulfanyl)-3-(methylsulfinyl)-N-(1-methyl-1H-tetrazol-5-yl)-4-(trifluoromethyl)benzamide • V-2: 2-(methylsulfanyl)-3-(methylsulfonyl)-N-(1-methyl-1H-tetrazol-5-yl)-4-(trifluoromethyl)benzamide • V-3: 2,3-bis(ethylsulfanyl)-N-(1-methyl-1H-tetrazol-5-yl)-4-(trifluoromethyl)benzamide • V-4: 2-chloro-3-(ethylsulfanyl)-N-(1-methyl-1H-tetrazol-5-yl)-4-(trifluoromethyl)benzamide • V-5: 2-chloro-4-iodo-3-(methylsulfanyl)-N-(1-methyl-1H-tetrazol-5-yl)benzamide • V-6: 2-chloro-4-iodo-3-(methylsulfinyl)-N-(1-methyl-1H-tetrazol-5-yl)benzamide • V-7: 2-chloro-4-iodo-3-(methylsulfonyl)-N-(1-methyl-1H-tetrazol-5-yl)benzamide • V-8: 2-bromo-3-(methylsulfanyl)-N-(1-methyl-1H-tetrazol-5-yl)-4-(trifluoromethyl)benzamide • V-9: 2-bromo-3-(methylsulfinyl)-N-(1-methyl-1H-tetrazol-5-yl)-4-(trifluoromethyl)benzamide • V-10: 2-bromo-3-(methylsulfonyl)-N-(1-methyl-1H-tetrazol-5-yl)-4-(trifluoromethyl)benzamide • V-11: 2-bromo-3-(ethylsulfanyl)-N-(1-methyl-1H-tetrazol-5-yl)-4-(trifluoromethyl)benzamide • V-12: 2-bromo-3-(ethylsulfinyl)-N-(1-methyl-1H-tetrazol-5-yl)-4-(trifluoromethyl)benzamide • V-13: 2-bromo-3-(ethylsulfonyl)-N-(1-methyl-1-1H-tetrazol-5-yl)-4-(trifluoromethyl)benzamide • V-14: 2-cyclopropyl-3-(ethylsulfanyl)-N-(1-methyl-1H-tetrazol-5-yl)-4-(trifluoromethyl)benzamide Herbicidal Pre-Emergence Action: […]

Cyperus esculentus [8] = experiment: Post-emergence herbicidal action, CYPES; parameters: key: % herbicidal action vs untreated; 100 = plants died, 0 = like control; conditions: comparative experiment, post-emergence, 5 g of a.i./ha
Experimental: as §4

Amaranthus retroflexus [9] = experiment: Post-emergence herbicidal action, AMARE; parameters: key: % herbicidal action vs untreated; 100 = plants died, 0 = like control; conditions: comparative experiment, post-emergence, 5 g of a.i./ha
Procedure, shortened: as §3

Alopecurus myosuroides [10] = experiment: Pre-emergence herbicidal action, ALOMY; parameters: key: % activity: 100 = plants have died, 0 = like control plants; conditions: comparative experiment, 20 g of a.i./ha
Excerpt: as §2

[11] = dosage 320 g/ha, scored visually after 3 weeks vs untreated controls (100% = plants have died)
[12] = comparative experiment, 20 g of a.i./ha

Compound: CSc1c(C(=O)Nc2nnnn2C)ccc(C(F)(F)F)c1CS(C)(=O)=O [Example 1-163]
- herbicidal activity VIOTR (Viola tricolor; [11]): 100%
- herbicidal activity MATIN (Matricaria inodora; [11]): 100%
- herbicidal activity PHBPU (Pharbitis purpurea): 80%
- Herbicidal action against POLCO (Polygonum convolvulus [1]): 70
- Herbicidal action against POLCO (Polygonum convolvulus [2]; [12]): 70
- herbicidal activity POLCO (Polygonum convolvulus [2]; [11]): 100%
- herbicidal activity HORMU (Hordeum murinum): 90%
- herbicidal activity VERPE (Veronica persica; [11]): 100%
- herbicidal activity ABUTH (Abutilon theophrasti; [11]): 100%
- Herbicidal action against ECHCG (Echinochloa crus-galli; [12]): 90
- herbicidal activity ECHCG (Echinochloa crus-galli; [11]): 100%
- herbicidal activity AMARE (Amaranthus retroflexus [3]; [11]): 100%
- herbicidal activity SETVI (Setaria viridis; [11]): 100%
- Herbicidal action against CYPES (Cyperus esculentus [4]): 70
- herbicidal activity STEME (Stellaria media [5]; [11]): 100%

Compound: CSc1c(I)ccc(C(=O)Nc2nnnn2C)c1Cl [Example V-5, 2-chloro-4-iodo-3-(methylsulfanyl)-N-(1-methyl-1H-tetrazol-5-yl)benzamide, reference compound]
- Herbicidal action against MATIN (Matricaria inodora): 20
- Herbicidal action against STEME (Stellaria media [6]): 10
- Herbicidal action against ALOMY (Alopecurus myosuroides [7]): 40
- Herbicidal action against VERPE (Veronica persica): 0
- Herbicidal action against CYPES (Cyperus esculentus [8]): 10
- Herbicidal action against AMARE (Amaranthus retroflexus [9]): 70
- pest or weed control at 20 g/ha (Echinochloa crus-galli; [12]): 0%
- Herbicidal action against AMARE (Amaranthus retroflexus [3]): 70
- Herbicidal action against SETVI (Setaria viridis): 0
- Herbicidal action against CYPES (Cyperus esculentus [4]): 0
- Herbicidal action against STEME (Stellaria media [5]): 0

Compound: Cn1nnnc1NC(=O)c1ccc(I)c([S+](C)[O-])c1Cl (stereo not drawn) [Example V-6, 2-chloro-4-iodo-3-(methylsulfinyl)-N-(1-methyl-1H-tetrazol-5-yl)benzamide, reference compound]
- Herbicidal action against MATIN (Matricaria inodora): 60
- Herbicidal action against ALOMY (Alopecurus myosuroides [10]): 30
- Herbicidal action against ABUTH (Abutilon theophrasti; [12]): 40
- Herbicidal action against AMARE (Amaranthus retroflexus [3]): 50
- Herbicidal action against SETVI (Setaria viridis): 60
- Herbicidal action against STEME (Stellaria media [5]): 0

Compound: Cn1nnnc1NC(=O)c1ccc(C(F)(F)F)c([S+](C)[O-])c1Br (stereo not drawn) [Example V-9, 2-bromo-3-(methylsulfinyl)-N-(1-methyl-1H-tetrazol-5-yl)-4-(trifluoromethyl)benzamide, reference compound]
- Herbicidal action against VIOTR (Viola tricolor; [12]): 70
- Herbicidal action against ALOMY (Alopecurus myosuroides [10]): 20
- pest or weed control at 20 g/ha (Echinochloa crus-galli; [12]): 60%
- Herbicidal action against SETVI (Setaria viridis): 40
- Herbicidal action against STEME (Stellaria media [5]): 60

Compound: Cn1nnnc1NC(=O)c1ccc(C(F)(F)F)c(S(C)(=O)=O)c1Br [Example V-10, 2-bromo-3-(methylsulfonyl)-N-(1-methyl-1H-tetrazol-5-yl)-4-(trifluoromethyl)benzamide, reference compound]
- Herbicidal action against ALOMY (Alopecurus myosuroides [10]): 10
- Herbicidal action against VERPE (Veronica persica): 60
